Series [1] addresses c-AMP phosphodiesterase (erythrocytes). As to the kind of experiment: Inhibition of cyclic AMP phosphodiesterase (erythrocyte extract, radiochemical procedure). It counts as biochemical. Particulars: phosphodiesterase extracted from erythrocytes. As to the method: a) Inhibition of Cyclic AMP Phosphodiesterase
The phosphodiesterase was extracted by mixing the erythrocytes with 4 volumes of 7 mM phosphate buffer, pH7.4, followed by sonification (3×10 sec; 100 W) and then centrifuging for 30 min at 4200×g.
All supernatants were diluted in the extraction medium and assayed for phosphodiesterase activity within 6 hours of preparation, using the radiochemical procedure described in the above mentioned reference.

Series [2] has as its system Sephadex induced eosinophilia. The series can be described thus: Sephadex induced blood eosinophilia in the rat. It counts as in vivo. Particulars: n = 12 or more. As to the method: b) Induction of blood eosinophilia and the effects of drugs.
Male Charles River Sprague Dawley rats weight between 250 to 300 g were used.
The method used was a modification of that described by Laycock et al (Int. Arch. Appl. Immunol, (1986). 81, 363).
Sephadex G200, particle size 40 to 120 micron, was suspended in isotonic saline at 0.5 mg/ml, and stored for 48 h at 4° C. 1 ml of the suspension was given intravenously to rats on days 0,2 and 5. A control group received saline. The test compound was given before the Sephadex on each occasion, with a contact time expected to give maximum activity at the time of the Sephadex administration. Blood was taken from the tail vein of the rats on day 7 for the determination of total and differential leucocyte counts.
A control group of at least 6 animals was included each time a compound was evaluated. The control group received Sephadex and the vehicle without test compound. The results in the drug treated animals were compared with the control group. Alternatively, if the mean for the control group for any experiment was not statistically different from the mean of the sum of all of the controls groups, then the treated animal results for that experiment were compared with the mean of the sum of all the control groups.
Total and differential leucocyte counts
20 μl samples of blood, taken from the tail vein of the rats, were added to 10 ml of Isoton II and, within 30 min, Zaponin (3 drops) was added, to lyse the erythrocytes. Five minutes later the total cell count was determined using a Coulter Counter Model DN. Differential leucocyte counts were carried out by fixing and staining a blood smear on a microscopic slide with May-Grunwald and Giemsa stains. A minimum of 400 cells were counted on each slide.
Probability values were calculated using the Student's t test.
The effect of the test compound upon Sephadex induced eosinophilia in the rat is set out in Table 3. The test compound was given orally 30 minutes before each injection of Sephadex.

Where [3] appears, read: 25.0 mg/kg orally 30 mins before each Sephadex i.v. injection.

The record followed here is US6531600B1, “Treatment and compounds” (Beecham Group p.l.c., priority 1989, dated 2003).

What is called Ki is a dissociation constant, usually derived from enzyme kinetics or from competition with a known ligand. By melting point is commonly meant the temperature of the solid-liquid transition.

Consider “1,3-Di-cyclopropylmethyl-8-piperidinyl xanthine [Example 23]”, for which the affinity in series [1], expressed as Ki, was 55.9 µM. For the compound “1,3-Di-cyclopropylmethyl-8-pyrrolidinyl xanthine [Example 22]”, the inhibition constant Ki in series [1] was 29.7 µM. `CCCCn1c(=O)c2[nH]c([N+](=O)[O-])nc2n(CCCC)c1=O` [Example 1, 1,3-Di-n-butyl-8-nitro xanthine] returned a Ki in series [1] of 17 µM. The “% of Control Mean ± SEM (blood eosinophilia)” value (“% of Control Mean ± SEM” below) in series [2] (setting [3]) was 109 ± 6 % of Control. Consider `O=c1c2[nH]c([N+](=O)[O-])nc2n(CC2CC2)c(=O)n1CC1CC1` [Example 2, 1,3-Di-cyclopropylmethyl-8-nitro xanthine], for which the Ki in series [1] is 15.9 µM.

Compound `O=c1c2[nH]c([N+](=O)[O-])nc2n(CC2CCC2)c(=O)n1CC1CCC1` [Example 3] gave a melting point of 220 °C. Further, in series [1], affinity was put at a Ki of 6.1 µM. The corresponding values for `O=c1c2[nH]c([N+](=O)[O-])nc2n(CC2CCCC2)c(=O)n1CC1CCCC1` [Example 4] are 148 to 150 °C and 4.8 µM.

On to `O=c1c2[nH]c([N+](=O)[O-])nc2n(CC2CCCCC2)c(=O)n1CC1CCCCC1` [Example 5], for which the melting point was 140 °C. Moreover, the affinity in series [1] corresponds to a Ki of 5.4 µM. With `CCCCn1c(=O)c2[nH]c(N)nc2n(CCCC)c1=O.Cl` [Example 7, 1,3-Di-n-butyl-8-amino xanthine hydrochloride], the Ki in series [1] stood at 1.3 µM. The “% of Control Mean ± SEM” value in series [2] (setting [3]) is listed as 91 ± 6 % of Control. Regarding `CCCCn1c(=O)c2[nH]c(N)nc2n(CCCC)c1=O` [Example 8, 1,3-Di-n-butyl-8-amino xanthine], the melting point came to 89 °C. In series [1], `Nc1nc2c([nH]1)c(=O)n(CC1CC1)c(=O)n2CC1CC1` [Example 9, 1,3-Di-cyclopropylmethyl-8-amino xanthine] came in with a Ki of 1.6 µM. The “% of Control Mean ± SEM” value was 61 ± 8 % of Control in series [2] (0.2 mg/kg orally 30 mins before each Sephadex i.v. injection) and 48 ± 7 % of Control in series [2] (2.0 mg/kg orally 30 mins before each Sephadex i.v. injection).

With `Nc1nc2c([nH]1)c(=O)n(CC1CCC1)c(=O)n2CC1CCC1` [Example 10], the melting point is 124 °C (dec.). Besides, in series [1], the Ki was found to be 0.53 µM. Besides, the “% of Control Mean ± SEM” value in series [2] (5.0 mg/kg orally 30 mins before each Sephadex i.v. injection) is given as 47 ± 4 % of Control. As for `Nc1nc2c([nH]1)c(=O)n(CC1CCCC1)c(=O)n2CC1CCCC1` [Example 11], the melting point came out at 300 °C. Moreover, the Ki in series [1] was found to be 0.57 µM. In the case of `Nc1nc2c([nH]1)c(=O)n(C1CC1)c(=O)n2C1CC1` [Example 13, 1,3-Di-cyclopropyl-8-amino xanthine], affinity in series [1] was put at a Ki of 14 µM. In turn, `O=c1c2[nH]c(Cl)nc2n(CC2CC2)c(=O)n1CC1CC1` [Example 17, 1,3-Di-cyclopropylmethyl-8-chloro xanthine] registered a Ki in series [1] of 15.1 µM.

In the case of `O=c1c2[nH]c(Cl)nc2n(C2CCCCC2)c(=O)n1C1CCCCC1` [Example 18, 1,3-Di-cyclohexyl-8-chloro xanthine], the Ki in series [1] worked out at 23 µM. In series [1], `CCCCn1c(=O)c2[nH]c(N3CCCCC3)nc2n(CCCC)c1=O` [Example 19, 1,3-Di-n-butyl-8-piperidino xanthine] had an inhibition constant (Ki) of under 100 µM. On to `O=c1c2[nH]c(N3CCOCC3)nc2n(CC2CC2)c(=O)n1CC1CC1` [Example 20, 1,3-Di-cyclopropylmethyl-8-morpholino xanthine], for which affinity in series [1] was put at a Ki of 11.5 µM. As for `O=c1c2[nH]c(Br)nc2n(CC2CCCCC2)c(=O)n1CC1CCCCC1` [Example 25, 1,3-Di-cyclohexylmethyl-8-bromo xanthine], in series [1], the affinity, expressed as Ki, was 7.9 µM.
